# Test results: the NIST ThermoML archive (doi:10.1021/je7002836)
# ± gives the expanded uncertainty stated by the source.
# Experiment: xn = mol fraction of the nth substance listed
# Conditions: 101 kPa, Liquid
structure (smiles),measurement,setting,value
C[N+](=O)[O-] [nitromethane] + CCCC[n+]1cccc(C)c1.F[B-](F)(F)F,mass density,"293.15 K, x2 = 0",1140.2 ± 3.3 kg/m3
same,mass density,"293.15 K, x2 = 0.0517",1153.4 ± 3.5 kg/m3
same,mass density,"293.15 K, x2 = 0.1038",1161.5 ± 3.6 kg/m3
same,mass density,"293.15 K, x2 = 0.1952",1170.3 ± 3.7 kg/m3
same,mass density,"293.15 K, x2 = 0.3078",1176.7 ± 3.7 kg/m3
same,mass density,"293.15 K, x2 = 0.3563",1178.7 ± 3.7 kg/m3
same,mass density,"293.15 K, x2 = 0.3998",1180.1 ± 3.7 kg/m3
same,mass density,"293.15 K, x2 = 0.5121",1183 ± 3.7 kg/m3
same,mass density,"293.15 K, x2 = 0.5994",1184.6 ± 3.7 kg/m3
same,mass density,"293.15 K, x2 = 0.6856",1185.8 ± 3.7 kg/m3
same,mass density,"293.15 K, x2 = 0.7863",1186.9 ± 3.7 kg/m3
same,mass density,"293.15 K, x2 = 0.8842",1187.7 ± 3.7 kg/m3
same,mass density,"293.15 K, x2 = 0.9034",1187.9 ± 3.7 kg/m3
same,mass density,"293.15 K, x2 = 0.941",1188.2 ± 3.6 kg/m3
same,mass density,"298.15 K, x2 = 0",1133.4 ± 3.2 kg/m3
same,mass density,"298.15 K, x2 = 0.0517",1147.4 ± 3.4 kg/m3
same,mass density,"298.15 K, x2 = 0.1038",1156 ± 3.5 kg/m3
same,mass density,"298.15 K, x2 = 0.1952",1165.4 ± 3.6 kg/m3
same,mass density,"298.15 K, x2 = 0.3078",1172.2 ± 3.6 kg/m3
same,mass density,"298.15 K, x2 = 0.3563",1174.3 ± 3.7 kg/m3
same,mass density,"298.15 K, x2 = 0.3998",1175.9 ± 3.7 kg/m3
same,mass density,"298.15 K, x2 = 0.5121",1179 ± 3.7 kg/m3
same,mass density,"298.15 K, x2 = 0.5994",1180.7 ± 3.7 kg/m3
same,mass density,"298.15 K, x2 = 0.6856",1182.1 ± 3.6 kg/m3
same,mass density,"298.15 K, x2 = 0.7863",1183.3 ± 3.6 kg/m3
same,mass density,"298.15 K, x2 = 0.8842",1184.2 ± 3.6 kg/m3
same,mass density,"298.15 K, x2 = 0.9034",1184.4 ± 3.6 kg/m3
same,mass density,"298.15 K, x2 = 0.941",1184.8 ± 3.6 kg/m3
same,mass density,"303.15 K, x2 = 0",1126.6 ± 3.1 kg/m3
same,mass density,"303.15 K, x2 = 0.0517",1141.3 ± 3.3 kg/m3
same,mass density,"303.15 K, x2 = 0.1038",1150.5 ± 3.4 kg/m3
same,mass density,"303.15 K, x2 = 0.1952",1160.4 ± 3.5 kg/m3
same,mass density,"303.15 K, x2 = 0.3078",1167.8 ± 3.6 kg/m3
same,mass density,"303.15 K, x2 = 0.3563",1170 ± 3.6 kg/m3
same,mass density,"303.15 K, x2 = 0.3998",1171.6 ± 3.6 kg/m3
same,mass density,"303.15 K, x2 = 0.5121",1175 ± 3.6 kg/m3
same,mass density,"303.15 K, x2 = 0.5994",1176.9 ± 3.6 kg/m3
same,mass density,"303.15 K, x2 = 0.6856",1178.3 ± 3.6 kg/m3
same,mass density,"303.15 K, x2 = 0.7863",1179.7 ± 3.6 kg/m3
same,mass density,"303.15 K, x2 = 0.8842",1180.7 ± 3.6 kg/m3
same,mass density,"303.15 K, x2 = 0.9034",1180.9 ± 3.6 kg/m3
same,mass density,"303.15 K, x2 = 0.941",1181.3 ± 3.6 kg/m3
same,mass density,"308.15 K, x2 = 0",1119.7 ± 3.1 kg/m3
same,mass density,"308.15 K, x2 = 0.0517",1135.3 ± 3.2 kg/m3
same,mass density,"308.15 K, x2 = 0.1038",1144.9 ± 3.4 kg/m3
same,mass density,"308.15 K, x2 = 0.1952",1155.5 ± 3.5 kg/m3
same,mass density,"308.15 K, x2 = 0.3078",1163.3 ± 3.5 kg/m3
same,mass density,"308.15 K, x2 = 0.3563",1165.7 ± 3.5 kg/m3
same,mass density,"308.15 K, x2 = 0.3998",1167.4 ± 3.5 kg/m3
same,mass density,"308.15 K, x2 = 0.5121",1171 ± 3.6 kg/m3
same,mass density,"308.15 K, x2 = 0.5994",1173.1 ± 3.6 kg/m3
same,mass density,"308.15 K, x2 = 0.6856",1174.6 ± 3.5 kg/m3
same,mass density,"308.15 K, x2 = 0.7863",1176.1 ± 3.5 kg/m3
same,mass density,"308.15 K, x2 = 0.8842",1177.2 ± 3.5 kg/m3
same,mass density,"308.15 K, x2 = 0.9034",1177.4 ± 3.5 kg/m3
same,mass density,"308.15 K, x2 = 0.941",1177.9 ± 3.5 kg/m3
same,mass density,"313.15 K, x2 = 0",1112.9 ± 3 kg/m3
same,mass density,"313.15 K, x2 = 0.0517",1129.2 ± 3.2 kg/m3
same,mass density,"313.15 K, x2 = 0.1038",1139.4 ± 3.3 kg/m3
same,mass density,"313.15 K, x2 = 0.1952",1150.6 ± 3.4 kg/m3
same,mass density,"313.15 K, x2 = 0.3078",1158.8 ± 3.5 kg/m3
same,mass density,"313.15 K, x2 = 0.3563",1161.4 ± 3.5 kg/m3
same,mass density,"313.15 K, x2 = 0.3998",1163.2 ± 3.5 kg/m3
same,mass density,"313.15 K, x2 = 0.5121",1167 ± 3.5 kg/m3
same,mass density,"313.15 K, x2 = 0.5994",1169.2 ± 3.5 kg/m3
same,mass density,"313.15 K, x2 = 0.6856",1170.9 ± 3.5 kg/m3
same,mass density,"313.15 K, x2 = 0.7863",1172.5 ± 3.5 kg/m3
same,mass density,"313.15 K, x2 = 0.8842",1173.7 ± 3.5 kg/m3
same,mass density,"313.15 K, x2 = 0.9034",1174 ± 3.5 kg/m3
same,mass density,"313.15 K, x2 = 0.941",1174.4 ± 3.5 kg/m3
same,mass density,"318.15 K, x2 = 0",1106 ± 2.9 kg/m3
same,mass density,"318.15 K, x2 = 0.0517",1123.1 ± 3.1 kg/m3
same,mass density,"318.15 K, x2 = 0.1038",1133.9 ± 3.2 kg/m3
same,mass density,"318.15 K, x2 = 0.1952",1145.6 ± 3.3 kg/m3
same,mass density,"318.15 K, x2 = 0.3078",1154.4 ± 3.4 kg/m3
same,mass density,"318.15 K, x2 = 0.3563",1157.1 ± 3.4 kg/m3
same,mass density,"318.15 K, x2 = 0.3998",1159.1 ± 3.4 kg/m3
same,mass density,"318.15 K, x2 = 0.5121",1163.1 ± 3.4 kg/m3
same,mass density,"318.15 K, x2 = 0.5994",1165.4 ± 3.5 kg/m3
same,mass density,"318.15 K, x2 = 0.6856",1167.2 ± 3.4 kg/m3
same,mass density,"318.15 K, x2 = 0.7863",1169 ± 3.4 kg/m3
